This is an account of results in US8049034B2, “Biphenyl compound selective agonists of gamma RAR receptors” (Galderma Research & Development, priority 2005, dated 2011).

Holding throughout (assay type): cell-based
Test [1] concerns the target T1, RAR beta (Homo sapiens, UniProt P10826).
T1 sequence (P10826 183-417 limits assumed): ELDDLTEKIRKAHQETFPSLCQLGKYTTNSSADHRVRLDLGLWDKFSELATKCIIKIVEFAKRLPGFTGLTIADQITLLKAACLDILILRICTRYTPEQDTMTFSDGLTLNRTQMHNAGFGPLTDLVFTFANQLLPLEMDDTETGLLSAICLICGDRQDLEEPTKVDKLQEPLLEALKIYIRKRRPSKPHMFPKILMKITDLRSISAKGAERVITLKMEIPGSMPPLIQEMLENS
Put plainly: Transactivation test (luciferase reporter, HeLa stable transfectants), RAR beta. To be noted: apparent Kd from Schild regression, cross curves against reference antagonist, HeLa cells; read-out: RAR beta Kdapp. The method, then:
(§1) The activation of the receptors by an agonist (activator) in HeLa cells results in the expression of a reporter gene, luciferase, which, in the presence of a substrate, generates light. It is thus possible to measure the activation of the receptors by quantifying the luminescence produced after incubation of the cells in the presence of a reference antagonist. The activating products displace the antagonist from its site, thus allowing activation of the receptor. The activity is measured by quantifying the increase in the light produced. This measurement makes it possible to determine the activator activity of the compound that can be used in the invention.
(§2) In this study, a constant which represents the affinity of the molecule for the receptor is determined. Since this value can fluctuate according to the basal activity and the expression of the receptor, it is designated apparent Kd (KdApp).
(§3) The test product is used at 10 concentrations and the reference antagonist at 7 concentrations. In each well (of a 96-well plate), the cells are in contact with one concentration of the test product and one concentration of the reference antagonist.
(§4) Measurements are also carried out for the total agonist control, otherwise known as 100% control (4-[2-(5,5,8,8-tetramethyl-5,6,7,8-tetrahydronaphthalen-2-yl)propenyl]benzoic acid), and the inverse agonist control, otherwise known as 0% control (4-{(E)-3-[4-(4-tert-butylphenyl)-5,5,8,8-tetramethyl-5,6,7,8-tetrahydronaphthalen-2-yl)]-3-oxopropenyl}benzoic acid).
(§5) In the case of an agonist, the AC50 is calculated by plotting the curve of the product at the concentration of the reference ligand giving 80% activation. The percentage activation which corresponds to the maximum level of activity obtained is also measured.
(§6) The HeLa cell lines used are stable transfectants containing the plasmids ERE-βGlob-Luc-SV-Neo (reporter gene) and RAR (α, β, γ) ER-DBO-puro. These cells are seeded into 96-well plates at a rate of 10 000 cells per well in 100 μl of DMEM medium without phenol red and supplemented with 10% defatted calf serum. The plates are then incubated at 37° C., 7% CO2 for 4 hours.
(§7) The various dilutions of the test product, of the reference ligand
(§8) (4-(5,5-dimethyl-8-p-tolyl-5,6-dihydronaphthalen-2-ylethynyl)benzoic acid), of the 100% control (100 nM 4-[2-(5,5,8,8-tetramethyl-5,6,7,8-tetrahydronaphthalen-2-yl)propenyl]benzoic acid) and of the 0% control (500 nM 4-{(E)-3-[4-(4-tert-butylphenyl)-5,5,8,8-tetramethyl-5,6,7,8-tetrahydronaphthalen-2-yl)]-3-oxopropenyl}benzoic acid) are added at a rate of 5 μl per well. The plates are then incubated for 18 hours at 37° C., 7% CO2.
(§9) The culture medium is removed by turning the plates over, and 100 μl of a 1:1 PBS (phosphate buffered solution)/luciferin mixture are added to each well. After 5 minutes, the plates are read using the luminescence reader.

Test [2] deals with T2, RAR alpha (Homo sapiens, UniProt P10276).
T2 sequence (P10276 183-417 limits assumed): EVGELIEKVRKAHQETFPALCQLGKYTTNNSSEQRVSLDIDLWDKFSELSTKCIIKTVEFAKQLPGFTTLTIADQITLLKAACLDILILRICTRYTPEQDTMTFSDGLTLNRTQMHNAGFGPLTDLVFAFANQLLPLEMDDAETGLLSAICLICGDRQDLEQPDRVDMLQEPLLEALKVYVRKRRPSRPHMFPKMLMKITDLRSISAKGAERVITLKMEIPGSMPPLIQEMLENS
Nature of the test: Transactivation test (luciferase reporter, HeLa stable transfectants), RAR alpha. To be noted: apparent Kd from Schild regression, cross curves against reference antagonist, HeLa cells; read-out: RAR alpha Kdapp. As for the experimental part:
as §1, §2, §3, §4, §5, §6, §7, §8, §9
A general note: In a reporter assay the amount or activity of a reporter protein is the signal.

In test [3] the target is T3, RAR gamma (Homo sapiens, UniProt P13631).
T3 construct: RAR gamma Kdapp
T3 sequence (P13631 185-419 limits assumed): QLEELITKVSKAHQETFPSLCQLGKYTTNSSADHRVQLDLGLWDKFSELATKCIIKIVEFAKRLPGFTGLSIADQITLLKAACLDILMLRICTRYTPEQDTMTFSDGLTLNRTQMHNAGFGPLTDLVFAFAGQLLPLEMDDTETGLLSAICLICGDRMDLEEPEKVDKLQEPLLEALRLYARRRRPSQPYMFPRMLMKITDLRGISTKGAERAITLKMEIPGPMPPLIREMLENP
Nature of the test: Transactivation test (luciferase reporter, HeLa stable transfectants), RAR gamma. The settings on record: apparent Kd from Schild regression, cross curves against reference antagonist, HeLa cells; read-out: RAR gamma Kdapp. As for the experimental part:
as §1, §2, §3, §4
In the case of an agonist, the AC50 is calculated by plotting the curve of the product at the concentration of the reference ligand giving 80% activation. The percentage activation which corresponds to the maximum level of activity obtained is also measured. […]
as §9

pKd: −log10 of the molar value.

For `Cc1cc(-c2ccc(-c3ccccc3)c(-c3ccc4c(c3)C(C)(C)CCC4(C)C)c2)ccc1C(=O)O` [Example 41, 3″-Methyl-2′-(5,5,8,8-tetramethyl-5,6,7,8-tetrahydronaphthalen-2-yl)-[1,1′:4,1″]-tert-phenyl-4″-carboxylic acid], the pKd in test [1] is 9.00; in test [2], 8.70; in test [3], 9.60.

In the case of `CC1(C)CCC(C)(C)c2cc(-c3cc(-c4ccc(C(=O)O)cc4O)ccc3-c3ccccc3)ccc21` [Example 42, 2″-Hydroxy-2′-(5,5,8,8-tetramethyl-5,6,7,8-tetrahydronaphthalen-2-yl)-[1,1′:4,1″]-tert-phenyl-4″-carboxylic acid], the values for the pKd in test [1] and in test [2] were 8.40 and 8.10, respectively.

Regarding `COc1cc(C(=O)O)ccc1-c1ccc(-c2ccccc2)c(-c2ccc3c(c2)C(C)(C)CCC3(C)C)c1` [Example 44, 2″-Methoxy-2′-(5,5,8,8-tetramethyl-5,6,7,8-tetrahydronaphthalen-2-yl)-[1,1′:4,1″]-tert-phenyl-4″-carboxylic acid], the pKd in test [1] was 8.70; in test [2] it was 8.40; in test [3] it was 9.30.

On to `CC1(C)CCC(C)(C)c2cc(-c3cc(-c4ccc(C(=O)O)c(O)c4)ccc3-c3ccccc3)ccc21` [Example 46, 3″-Hydroxy-2′-(5,5,8,8-tetramethyl-5,6,7,8-tetrahydronaphthalen-2-yl)-[1,1′:4,1″]-tert-phenyl-4″-carboxylic acid], for which the values for the pKd in test [1], in test [2] and in test [3] were 9.00, 8.70 and 9.60, respectively.

Consider `CC1(C)CCC(C)(C)c2cc(-c3cc(-c4ccc(C(=O)O)cn4)ccc3-c3ccccc3)ccc21` [Example 47, 6-[2-(5,5,8,8-Tetramethyl-5,6,7,8-tetrahydronaphthalen-2-yl)biphenyl-4-yl]nicotinic acid], for which the values for the pKd in test [1] and in test [2] were 9.00 and 8.40, respectively.

With `CC1(C)CCC(C)(C)c2cc(-c3cc(-c4ccc(C(=O)O)cc4)ccc3-c3ccccc3)ccc21` [Example 14, 2′-(5,5,8,8-Tetramethyl-5,6,7,8-tetrahydronaphthalen-2-yl)-[1,1′:4′,1″]-tert-phenyl-4″-carboxylic acid], the pKd in test [1] was 9.00; in test [2] it was 8.70.
